# US6994981B2, “Modulators of paraptosis and related methods” (The Buck Institute, priority 2002, dated 2006)
# Assays:
# [1] = test system: striatal, cortical, and hippocampal neurons; experiment: SP-induced cell death in primary striatal, cortical and hippocampal neurons, trypan blue viability and staining; type: cell-based, rat
# Protocol: Rat neuronal primary cell cultures were also used to assay for inducers and inhibitors of paraptosis. Briefly, primary striatal, cortical and hippocampal cultures were prepared from 17-day-old Sprague-Dawley rat embryos (B&K). The tissue was dissected, minced and trypsinized for five minutes using 0.25% trypsin (Cell Grow). After the addition of 10% horse serum (Life Technologies) to inhibit the trypsin, the cell suspension was triturated 15–20 times with a 10 ml syringe and centrifuged for five minutes at 800×g. The pellet was resuspended in MEM-PAK (UCSF Cell Culture facility), supplemented with 2.02 gm glucose, 2 mM GLUTAMAX™ (Life Technologies) and penicillin/streptomycin (100 U/ml). The suspension was filtered through a […] cell strainer and the final culture medium contained 5% horse serum. Subsequently, 3-4×10^5 cells per Cm^2 were seeded onto either poly-D-lysine precoated 8-well chamber slides (Becton-Dickson Labware) or 96 well plates precoated with […] of poly-D-lysine (Sigma) in water. After 30 minutes of incubation time, unattached cells were removed together with the medium and replaced with glucose enriched MEM-PAK plus 5% horse serum. The cultures were then incubated at 37° C. in 95% air 5% carbon dioxide with 95% humidity. Cultures were used for experiments between day 1 and day 7 when glial contamination was at a minimum.
# Primary neuronal cells were prepared as described in Example I. SP (SIGMA) at a concentration of 0.1 nM–100 μM was added 24–48 hrs after seeding, in the presence of 2.5% horse serum. When the cultures were maintained for more than 5 days, 10 μM cytosine arabinoside was added for 24 hours, beginning 3 days after plating the cells. Viability was quantified by trypan blue staining of the total cell population.
# The following compounds were added at the same time as SP in the indicated experiments: 5 nM L-732, 138; 1 nM L-733,060; 1 μg/ml Actinomycin D or 1 μg/ml Cycloheximide. All of these compounds were obtained from SIGMA. The caspase inhibitors zVAD.fmk and BAF were added at 50 μM and obtained from Enzyme System Products, Livermore, Calif.
# Either neuronal primary cultures or human embryonic kidney 293T cells were fixed with 4% paraformaldehyde and stained with 0.5 μg/ml DAPI (Molecular Probes) or Hoechst(SIGMA). […]
# (§1) The protein kinase inhibitors were added 30 min before SP exposure at the following concentrations: 10 μM Rp-8-Br-cAMPS (adenosin 3′,5′-cyclic monophosphorothioate, 8-bromo-, Rp-isomer, sodium salt) which is a PKA inhibitor; 50 nM Calphostin C, which is a PKC inhibitor; 10 μM PD 98059 which is a MAPKK (MEK) inhibitor. These compounds were obtained from Calbiochem. Viability was quantified by trypan blue staining of the total cell population.
# [2] = test system: 293T cells transfected with NK1R; experiment: SP-induced, NK1R-mediated cell death in 293T cells transfected with NK1R, trypan blue and staining; type: cell-based, human
# Protocol: (§2) Human embryonic kidney 293T cells were grown as described in Example I. Transient transfection was performed using Superfect (Qiagen) as described by the manufacturer. Briefly, 2×10^5 cells/well were seeded into 35 mm wells 16 hr prior to transfection. Superfect:DNA complexes were added at a 5 μl:2 μg ratio for 3 hr; then the medium was replaced and after 24 hr SP was added. At 24–48 hr after addition of SP cell death was quantified as follows: the media containing floating cells were collected and centrifuged 10 min at 2000×g, the pellet was resuspended in PBS/trypan blue and the cells were counted using a hematocytometer. When other compounds were used, they were added at the same time as SP: zVAD.fmk or BAF was added at 50 μM and obtained from Enzyme System Products, Livermore, Calif.
# Briefly, the method entailed cloning the full-length (1.2 kb) NK1R cDNA (Genbank Accession No. M31477) by RT-PCR from adult rat hippocampal RNA into the XbaI/EcoRI sites of the vector pcDNA3.1 (Invitrogen), using the following oligonucleotides: forward 5′[…] 3′ (SEQ ID NO:2); reverse 5′[…] 3′ (SEQ ID NO:3).
# Cells were stained according to the manufacturer's instructions (Clontech). Briefly, cellswere washed with binding buffer and incubated with FITC-Annexin-V or EGFPAnnexin-V for 5–10 min and fixed with 4% paraformaldehyde.
# Cells were fixed 10 min with 4% paraformaldehyde and stained according to the manufacturer's instructions (Promega).
# as §1
# [3] = test system: caspases, calpains, proteasome; experiment: Protease activation during SP-induced cell death, substrate hydrolysis in cytosolic extracts of NK1R-transfected 293T cells; type: biochemical, human
# Protocol: Preparation of cell-free extract for kinetic studies: 293T cells seeded at the density of 2 million cells per 10 cm dish were transfected with NK1R cDNA using Lipofectamine 2000 (Gibco) according the instructions provided by the manufacturer. After 24 hr 10 nM SP was added to half of the culture dishes. At 24 hr later the cells were washed with ice cold PBS and collected with a cell scraper. The cells pelleted at 700×g for 4 min were resuspended in cell lysis buffer at pH 7.4 containing 1 mM dithiothreitol at a ratio of 1:1 (v/v). After 30 min on ice the swelled cells were disrupted with 20 strokes using a 27 gauge needle and further spun at 16,000×g for 30 min. The pellet was discarded and the supernatant which represents the cytosolic fraction was aliquoted and stored at −80° C. or used in the kinetic studies. The protein concentration was determined using the Bradford assay (Pierce).
# For kinetic studies, the proteolytic activities were followed fluorometrically by monitoring AFC or AMC release from 100 μM of the corresponding substrates (Enzyme Systems Products): Caspase-1 like, Ac-YVAD-AFC; caspase-2, Ac-VDVAD-AFC; caspases-3 like, Ac-DEVD-AFC; caspase-6, Ac-VEID-AFC; caspase-8, Ac-IETD-AFC; caspase-9, Ac-LEHD-AFC. Calpain activity was monitored with 100 μM Suc-LY-AFC (succinyl-Leu-Tyr-7-amino-4-methylcoumarin, Enzyme Systems Products) at 5 μM and 5 mM CaCl2. The chymotrypsin activity of the proteasome was followed with 100 μM Suc-LLVY-AFC (succinyl-Leu-Leu-Val-Tyr-7-amino-4-methylcoumarin, Enzyme Systems Products), and cathepsins were assayed using 20 μM Z-FR-AMC (Benzyloxycarbonyl-Phe-Arg-7-amino-4-methylcoumarin, Bachem). A 10 μl aliquot of extract in the presence or absence of SP was added to 90 μl of substrate at the appropriate concentration and pH. The reaction was continuously monitored during 30 min and 37° C. in a fluorescence microplate reader (Molecular Devices). The instrument was set at excitation and emission wavelengths of 405 and 510 for AFC releasing group, and 370 and 460 nm, for AMC releasing group, respectively. The steady-state hydrolysis rates were obtained from the linear part of the curves.
# [4] = test system: cytochrome c release; conditions: cell-free system of apoptosis; cited from earlier work
# [5] = test system: 293T human embryonic kidney cells; experiment: SP toxicity to untransfected 293T cells; type: cell-based; conditions: no endogenous NK1R, up to millimolar SP
# Protocol: as §2
substance,measurement,setting,value
"SP: eleven amino acid neurotransmitter of the tachykinin family, ligand of NK1R",sensitivity of neurons to SP,[1]; 48 hours after exposure,sensitive to micromolar concentrations
same,effect of SP isomer on neuronal cell death,[1]; L or D isomer,induced cell death
same,sensitivity of neurons to SP,"[1]; seven days after exposure, SP added only once",sensitive to nanomolar concentrations
same,sensitivity of NK1R-transfected 293T cells to SP,[2],sensitive to SP at nanomolar concentrations
same,activation of calpains and chymotrypsin-like activity of the proteasome,[3],no significant effect on the rates of substrate hydrolysis
same,hydrolysis of substrates for initiator and executioner caspases,"[3]; 10 nM SP, 24 hr",no hydrolysis of substrates
same,DEVDase activity in response to SP stimulation,[3]; extracts with granzyme B added,no significant difference
same,cytochrome c release,[4],can induce cytochrome c release
same,sensitivity of 293T cells to SP-induced cell death,[5],resistant
